Measured values published in PubChem BioAssay (NCI).
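Cells were grown in 96-well plates and exposed to each compound for 48 hours at five concentrations; endpoints were interpolated linearly between bracketing concentrations, or set to the highest concentration if not reached. TGI marks complete inhibition of growth.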

Assays:
Assay in all cases: NCI tumour cell line growth inhibition, 48 h
SF-539 CNS = tested on: SF-539 CNS
MOLT-4 leukemia = tested on: MOLT-4 leukemia
NCI/ADR-RES ovarian = tested on: NCI/ADR-RES ovarian
IGROV1 ovarian = tested on: IGROV1 ovarian
SK-MEL-2 melanoma = tested on: SK-MEL-2 melanoma
SK-MEL-5 melanoma = tested on: SK-MEL-5 melanoma
NCI-H522 lung = tested on: NCI-H522 lung
SK-OV-3 ovarian = tested on: SK-OV-3 ovarian
SK-MEL-28 melanoma = tested on: SK-MEL-28 melanoma
EKVX NSCLC = tested on: EKVX NSCLC
SNB-75 CNS = tested on: SNB-75 CNS
NCI-H226 lung = tested on: NCI-H226 lung
SR leukemia = tested on: SR leukemia
SW-620 colon = tested on: SW-620 colon
SNB-19 CNS = tested on: SNB-19 CNS
OVCAR-4 ovarian = tested on: OVCAR-4 ovarian
CAKI-1 renal = tested on: CAKI-1 renal
A549 NSCLC = tested on: A549 NSCLC
UO-31 renal = tested on: UO-31 renal
UACC-62 melanoma = tested on: UACC-62 melanoma
K-562 leukemia = tested on: K-562 leukemia
MALME-3M melanoma = tested on: MALME-3M melanoma
HOP-92 NSCLC = tested on: HOP-92 NSCLC
NCI-H23 lung = tested on: NCI-H23 lung
NCI-H460 lung = tested on: NCI-H460 lung
MDA-N = tested on: MDA-N
LOX IMVI melanoma = tested on: LOX IMVI melanoma
OVCAR-3 ovarian = tested on: OVCAR-3 ovarian
CCRF-CEM leukemia = tested on: CCRF-CEM leukemia
HL-60(TB) leukemia = tested on: HL-60(TB) leukemia
MDA-MB-435 = tested on: MDA-MB-435
RPMI-8226 leukemia = tested on: RPMI-8226 leukemia
ACHN renal = tested on: ACHN renal
T-47D breast = tested on: T-47D breast
MDA-MB-231 breast = tested on: MDA-MB-231 breast
SF-295 CNS = tested on: SF-295 CNS
PC-3 prostate = tested on: PC-3 prostate
TK-10 renal = tested on: TK-10 renal
SF-268 CNS = tested on: SF-268 CNS
A498 renal = tested on: A498 renal
BT-549 breast = tested on: BT-549 breast
HCT-15 colon = tested on: HCT-15 colon
MCF7 breast = tested on: MCF7 breast
OVCAR-8 ovarian = tested on: OVCAR-8 ovarian
RXF 393 renal = tested on: RXF 393 renal
U251 CNS = tested on: U251 CNS
HT29 colon = tested on: HT29 colon
COLO 205 colon = tested on: COLO 205 colon
HCT-116 colon = tested on: HCT-116 colon
HS 578T breast = tested on: HS 578T breast
KM12 colon = tested on: KM12 colon
HOP-62 NSCLC = tested on: HOP-62 NSCLC
M14 melanoma = tested on: M14 melanoma
UACC-257 melanoma = tested on: UACC-257 melanoma
786-0 renal = tested on: 786-0 renal
OVCAR-5 ovarian = tested on: OVCAR-5 ovarian
SN12C renal = tested on: SN12C renal
DU-145 prostate = tested on: DU-145 prostate

CSc1cccc(NC(=O)OC2CCCCCCCCCCC2)c1
TGI (SF-539 CNS): 63.7 µM
TGI (MOLT-4 leukemia): > 100 µM
TGI (NCI/ADR-RES ovarian): 64.5 µM
TGI (IGROV1 ovarian): > 100 µM
TGI (SK-MEL-2 melanoma): 39.4 µM
TGI (SK-MEL-5 melanoma): 29.1 µM
TGI (NCI-H522 lung): 37.1 µM
TGI (SK-OV-3 ovarian): 57.9 µM
TGI (SK-MEL-28 melanoma): > 100 µM
TGI (EKVX NSCLC): 57.6 µM
TGI (SNB-75 CNS): > 100 µM
TGI (NCI-H226 lung): 61.7 µM
TGI (SR leukemia): > 100 µM
TGI (SW-620 colon): 45.9 µM
TGI (SNB-19 CNS): > 100 µM
TGI (OVCAR-4 ovarian): 45.6 µM
TGI (CAKI-1 renal): 61 µM
TGI (A549 NSCLC): > 100 µM
TGI (UO-31 renal): 22 µM
TGI (UACC-62 melanoma): 52.7 µM
TGI (K-562 leukemia): 93.7 µM
TGI (MALME-3M melanoma): 59.1 µM
TGI (HOP-92 NSCLC): > 100 µM
TGI (NCI-H23 lung): 98 µM
TGI (NCI-H460 lung): 35.2 µM
TGI (MDA-N): 60.8 µM
TGI (LOX IMVI melanoma): 35.1 µM
TGI (OVCAR-3 ovarian): 29.6 µM
TGI (CCRF-CEM leukemia): 45.5 µM
TGI (HL-60(TB) leukemia): 35.1 µM
TGI (MDA-MB-435): 39.9 µM
TGI (RPMI-8226 leukemia): 54.4 µM
TGI (ACHN renal): > 100 µM
TGI (T-47D breast): > 100 µM
TGI (MDA-MB-231 breast): 66.8 µM
TGI (SF-295 CNS): 57.9 µM
TGI (PC-3 prostate): > 100 µM
TGI (TK-10 renal): 75.1 µM
TGI (SF-268 CNS): > 100 µM
TGI (A498 renal): 62.3 µM
TGI (BT-549 breast): > 100 µM
TGI (HCT-15 colon): > 100 µM
TGI (MCF7 breast): 60.4 µM
TGI (OVCAR-8 ovarian): > 100 µM
TGI (RXF 393 renal): 70.9 µM
TGI (U251 CNS): 41 µM
TGI (HT29 colon): 43.8 µM
TGI (COLO 205 colon): 28.3 µM
TGI (HCT-116 colon): 38.9 µM
TGI (HS 578T breast): > 100 µM
TGI (KM12 colon): 31.5 µM
TGI (HOP-62 NSCLC): 48.3 µM
TGI (M14 melanoma): 59.5 µM
TGI (UACC-257 melanoma): 38.7 µM
TGI (786-0 renal): 53.9 µM
TGI (OVCAR-5 ovarian): > 100 µM
TGI (SN12C renal): 33.2 µM
TGI (DU-145 prostate): > 100 µM

O=C(NNC(=O)c1ccccc1O)c1ccc(O)cc1
TGI (SF-539 CNS): > 100 µM
TGI (MOLT-4 leukemia): > 100 µM
TGI (NCI/ADR-RES ovarian): 90.9 µM
TGI (IGROV1 ovarian): > 100 µM
TGI (SK-MEL-2 melanoma): 94.7 µM
TGI (SK-MEL-5 melanoma): > 100 µM
TGI (NCI-H522 lung): 56.7 µM
TGI (SK-OV-3 ovarian): > 100 µM
TGI (SK-MEL-28 melanoma): > 100 µM
TGI (EKVX NSCLC): > 100 µM
TGI (SNB-75 CNS): > 100 µM
TGI (NCI-H226 lung): > 100 µM
TGI (SR leukemia): > 100 µM
TGI (SW-620 colon): > 100 µM
TGI (SNB-19 CNS): > 100 µM
TGI (OVCAR-4 ovarian): > 100 µM
TGI (CAKI-1 renal): > 100 µM
TGI (A549 NSCLC): > 100 µM
TGI (UO-31 renal): > 100 µM
TGI (UACC-62 melanoma): > 100 µM
TGI (K-562 leukemia): > 100 µM
TGI (MALME-3M melanoma): > 100 µM
TGI (NCI-H460 lung): > 100 µM
TGI (MDA-N): > 100 µM
TGI (LOX IMVI melanoma): > 100 µM
TGI (OVCAR-3 ovarian): > 100 µM
TGI (CCRF-CEM leukemia): > 100 µM
TGI (HL-60(TB) leukemia): > 100 µM
TGI (MDA-MB-435): > 100 µM
TGI (RPMI-8226 leukemia): > 100 µM
TGI (T-47D breast): > 100 µM
TGI (MDA-MB-231 breast): 69.7 µM
TGI (SF-295 CNS): > 100 µM
TGI (PC-3 prostate): > 100 µM
TGI (TK-10 renal): > 100 µM
TGI (SF-268 CNS): > 100 µM
TGI (A498 renal): > 100 µM
TGI (BT-549 breast): > 100 µM
TGI (HCT-15 colon): > 100 µM
TGI (MCF7 breast): > 100 µM
TGI (OVCAR-8 ovarian): > 100 µM
TGI (RXF 393 renal): > 100 µM
TGI (U251 CNS): > 100 µM
TGI (HT29 colon): > 100 µM
TGI (COLO 205 colon): > 100 µM
TGI (HCT-116 colon): > 100 µM
TGI (HS 578T breast): > 100 µM
TGI (KM12 colon): > 100 µM
TGI (HOP-62 NSCLC): > 100 µM
TGI (M14 melanoma): > 100 µM
TGI (UACC-257 melanoma): > 100 µM
TGI (786-0 renal): > 100 µM
TGI (OVCAR-5 ovarian): > 100 µM
TGI (SN12C renal): > 100 µM
TGI (DU-145 prostate): > 100 µM

Cc1c(C)c(S(=O)(=O)N(CCCCCON)OCCCN)c(C)c2c1OC(C)(C)CC2
TGI (SF-539 CNS): 28.5 µM
TGI (MOLT-4 leukemia): 30 µM
TGI (NCI/ADR-RES ovarian): 31 µM
TGI (IGROV1 ovarian): 23.4 µM
TGI (SK-MEL-2 melanoma): 29.1 µM
TGI (SK-MEL-5 melanoma): 29.5 µM
TGI (NCI-H522 lung): 31.6 µM
TGI (SK-OV-3 ovarian): 28.1 µM
TGI (SK-MEL-28 melanoma): 32.2 µM
TGI (EKVX NSCLC): 24.7 µM
TGI (SNB-75 CNS): 27.3 µM
TGI (NCI-H226 lung): 36.7 µM
TGI (SR leukemia): > 21.7 µM
TGI (SW-620 colon): 33.2 µM
TGI (SNB-19 CNS): 28.9 µM
TGI (OVCAR-4 ovarian): 21.5 µM
TGI (CAKI-1 renal): 16 µM
TGI (A549 NSCLC): 26.1 µM
TGI (UO-31 renal): 30.2 µM
TGI (UACC-62 melanoma): 27.4 µM
TGI (K-562 leukemia): > 40.3 µM
TGI (MALME-3M melanoma): 27.4 µM
TGI (HOP-92 NSCLC): 23 µM
TGI (NCI-H23 lung): 29.6 µM
TGI (NCI-H460 lung): 22.4 µM
TGI (MDA-N): 27.3 µM
TGI (LOX IMVI melanoma): 22.5 µM
TGI (OVCAR-3 ovarian): 28.7 µM
TGI (CCRF-CEM leukemia): 3.47 µM
TGI (HL-60(TB) leukemia): 17.3 µM
TGI (MDA-MB-435): 24.8 µM
TGI (RPMI-8226 leukemia): 32 µM
TGI (ACHN renal): 30 µM
TGI (T-47D breast): 16.8 µM
TGI (MDA-MB-231 breast): 30.4 µM
TGI (SF-295 CNS): 29.3 µM
TGI (PC-3 prostate): 26.4 µM
TGI (TK-10 renal): 27.5 µM
TGI (SF-268 CNS): 30.5 µM
TGI (A498 renal): 28.3 µM
TGI (BT-549 breast): 29.3 µM
TGI (HCT-15 colon): 28.5 µM
TGI (MCF7 breast): 21.8 µM
TGI (OVCAR-8 ovarian): 23.9 µM
TGI (RXF 393 renal): 25.1 µM
TGI (U251 CNS): 25.7 µM
TGI (HT29 colon): 22.2 µM
TGI (COLO 205 colon): 10.3 µM
TGI (HCT-116 colon): > 100 µM
TGI (HS 578T breast): 41.7 µM
TGI (KM12 colon): 27.3 µM
TGI (HOP-62 NSCLC): 31.8 µM
TGI (M14 melanoma): 18.8 µM
TGI (UACC-257 melanoma): 29.5 µM
TGI (786-0 renal): > 100 µM
TGI (OVCAR-5 ovarian): 28.2 µM
TGI (SN12C renal): 32.4 µM
TGI (DU-145 prostate): 17.5 µM
